From patent US4914197A, “Novel phosphoric diesters” (Senju Pharmaceutical Co., Ltd., priority 1986, dated 1990)
Values joined by “and” are separate entries in the source; they are usually repeats but may differ in a detail not shown here. Equal values may be shown once.

What was measured:
rabbits eye = experiment: Topical antiinflammatory effect, anterior chamber paracentesis inflammation model of the rabbits eye; assay type: in vivo, female white rabbits; details: 0.1% ophthalmic solution; for % Inhibition: inhibition of increase in protein of secondary aqueous humor vs control; for Increase in protein: secondary minus primary aqueous humor (1.5 hours apart), 10 μl at 2, 1 and 0.5 hour before paracentesis, control 25.5
Protocol: The antiinflammatory effect of the compound according to the present invention was investigated in the anterior chamber paracentesis inflammation model of the rabbits eye.
Method: Using female white rabbits, a 0.1% ophthalmic solution of L-ascorbyl tocopheryl phosphate sodium and, as a control, physiological saline were instilled into the bilateral eyes of rabbits in volumes of 10 μl each at 2, 1 and 0.5 hour before peracentesis and using a 27-gauge needle about 200 μl of anterior chamber aqueous humor was collected from each eye (primary aqueous humor). Then, after an interval of 1.5 hours, the aqueous humor was collected again in the same manner (secondary aqueous humor). The protein content of each aqueous sample was determined by the method of Lowry and the increases in the amount of protein (protein content of secondary aqueous humor-protein content of primary aqueous humor) in the respective groups were compared to evaluate the antiinflammatory effect of each test substance.

[1] = system: back skin of Hartly guinea pigs; experiment: Inhibitory effect on ultraviolet-induced erythema; assay type: in vivo; parameters: key to Degree of erythema, After 1 hour, Right / Degree of erythema, After 1 hour, Left / Degree of erythema, After 2 hours, Right / Degree of erythema, After 2 hours, Left: 0: No erythema; 1: Slight erythema; 2: Erythema without a distinct margin; 3: Erythema with a distinct margin
Protocol: Method: The back hairs of Hartly guinea pigs were clipped with an electric clipper and shaved with an electric razor. Then, a cloth with two holes 11 mm in diameter and 4 cm apart was appliedto the back for positioning and a 1 (w/v) % aqueous solution of δ-EPC (adjusted to pH 6.0) and, as control, water were applied 3 times in 100 μl portions each at 1-hour intervals around the sites of said holes over an area 4 cm in diameter. One hour after the final application, said cloth with small holes was applied again and the exposed skin areas was irradiated with ultraviolet rays at 1700 luxes for 360 seconds. Then, after 1 and 2 hours, respectively, the back was grossly examined for erythema. […]
Erythema without a distinct margin
Erythema with a distinct margin

[2] = 1 (w/v) % aqueous solution pH 6.0, 3 x 100 μl, one animal per line, control 2, 2, 2, 2
[3] = 1 (w/v) % aqueous solution pH 6.0, 3 x 100 μl, one animal per line, control 2, 3, 2, 2

SMILES	% Inhibition (rabbits eye)	Increase in protein (rabbits eye)	Degree of erythema, After 1 hour, Left [1, 2]	Degree of erythema, After 2 hours, Left [1, 2]	Degree of erythema, After 1 hour, Right [1, 3]	Degree of erythema, After 2 hours, Right [1, 3]	antiinflammatory effect compared with the control group ([1]; UV-induced erythema, guinea pigs)
Cc1c(OP(=O)(O)OC2=C(O)[C@@H]([C@@H](O)CO)OC2=O)cc2c(c1C)OC(C)(CCCC(C)CCCC(C)CCCC(C)C)CC2 (mixture of isomers) [γ-EPC, L-Ascorbyl DL-γ-tocopheryl phosphate sodium]	36.5%	16.2	–	–	–	–	–
Cc1cc(OP(=O)(O)OC2=C(O)[C@@H]([C@@H](O)CO)OC2=O)c(C)c2c1OC(C)(CCCC(C)CCCC(C)CCCC(C)C)CC2 (mixture of isomers) [β-EPC, L-Ascorbyl DL-β-tocopheryl phosphate sodium]	37.3%	16.0	–	–	–	–	–
C[C@@H]1C[C@H]2[C@@H]3CCC4=CC(=O)C=C[C@]4(C)[C@@]3(F)[C@@H](O)C[C@]2(C)[C@@]1(O)C(=O)CO [DEX, Dexamethasone, reference compound]	18.4%	20.8	–	–	–	–	–
Cc1cc(OP(=O)(O)OC2=C(O)[C@@H]([C@@H](O)CO)OC2=O)cc2c1O[C@](C)(CCC[C@H](C)CCC[C@H](C)CCCC(C)C)CC2 [δ-EPC, L-Ascorbyl D-δ-tocopheryl phosphate sodium]	40.0%	15.3	0 and 1	0 and 1	1	1	significant antiinflammatory effect
